We go through 18 compounds from PubChem BioAssay AID192 (DTP/NCI, 2004).

“And” between values parts separate entries of the source, which are not always exact repeats. Equal values may be shown once. Toxic doses and inconclusive results are not listed.

The subject of the assay is BDF1 mice, B16 melanoma ip, median survival T/C. In words: NCI In Vivo Anticancer Drug Screen. Data for tumor model B16 Melanoma (intraperitoneal) in B6D2F1 (BDF1) mice. The conditions noted are these: endpoint: median survival time, higher = longer survival. In short, it runs like this: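 Mice with transplantable tumors; drug vs vehicle groups; endpoint survival or tumor size; value = T/C.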

[1] abbreviates: dose: 25.0 mg/kg/injection, schedule: Q01DX009 (ip), vehicle: saline with Tween-80.
Where [2] appears, read: dose: 50.0 mg/kg/injection, schedule: Q01DX009 (ip), vehicle: saline with Tween-80.
Where [3] appears, read: dose: 100.0 mg/kg/injection, schedule: Q01DX009 (ip), vehicle: saline with Tween-80.
Where [4] appears, read: dose: 200.0 mg/kg/injection, schedule: Q01DX009 (ip), vehicle: saline with Tween-80.
Setting [5] is: dose: 400.0 mg/kg/injection, schedule: Q01DX009 (ip), vehicle: saline with Tween-80.
Where [6] appears, read: dose: 12.5 mg/kg/injection, schedule: Q01DX009 (ip), vehicle: saline.
The mark [7] stands for this setting: dose: 25.0 mg/kg/injection, schedule: Q01DX009 (ip), vehicle: saline.
The mark [8] stands for this setting: dose: 50.0 mg/kg/injection, schedule: Q01DX009 (ip), vehicle: saline.
Where [9] appears, read: dose: 100.0 mg/kg/injection, schedule: Q01DX009 (ip), vehicle: Klucel (hydroxypropylcellulose) (HPC).
The mark [10] stands for this setting: dose: 25.0 mg/kg/injection, schedule: Q01DX009 (ip), vehicle: Klucel (hydroxypropylcellulose) (HPC).
The mark [11] stands for this setting: dose: 10.0 mg/kg/injection, schedule: Q01DX009 (ip), vehicle: saline with Tween-80.
Setting [12] is: dose: 20.0 mg/kg/injection, schedule: Q01DX009 (ip), vehicle: saline with Tween-80.
Setting [13] is: dose: 100.0 mg/kg/injection, schedule: Q01DX009 (ip), vehicle: saline.

`CCCCN(C)N=Nc1c(C(N)=O)n[nH]c1C`: the T/C (dose: 12.5 mg/kg/injection, schedule: Q01DX009 (ip), vehicle: saline with Tween-80) was 110 % of control; the T/C under setting [1] was 105 % of control; the T/C under setting [2] was 122 % of control; the T/C (dose: 50.0 mg/kg/injection, schedule: Q04DX003 (ip), vehicle: saline with Tween-80) was 100 % of control; the T/C (dose: 100.0 mg/kg/injection, schedule: Q04DX003 (ip), vehicle: saline with Tween-80) is 105 % of control; the T/C (dose: 200.0 mg/kg/injection, schedule: Q04DX003 (ip), vehicle: saline with Tween-80) is 113 % of control.

Regarding `Cc1cc(=O)[nH]c(N/N=C/c2ccc(N(C)C)cc2)n1`, the T/C under setting [3] was 100 % of control, the T/C under setting [4] is 95 % of control and the T/C under setting [5] was 97 % of control.

Take `O=c1nc(NC(=S)Nc2ccn(C3OC(CO)C(O)C3O)c(=O)n2)ccn1C1OC(CO)C(O)C1O` (stereo unspecified): the T/C by setting is: (dose: 4.0 mg/kg/injection, schedule: Q01DX009 (ip), vehicle: saline sonified) 97 % of control; (dose: 8.0 mg/kg/injection, schedule: Q01DX009 (ip), vehicle: saline sonified) 102 % of control; (dose: 8.0 mg/kg/injection, schedule: Q01DX009 (ip), vehicle: saline with Tween-80) 95 % of control; (dose: 16.0 mg/kg/injection, schedule: Q01DX009 (ip), vehicle: saline sonified) 100 % of control; (dose: 16.0 mg/kg/injection, schedule: Q01DX009 (ip), vehicle: saline with Tween-80) 108 % of control; (dose: 32.0 mg/kg/injection, schedule: Q01DX009 (ip), vehicle: saline sonified) 102 % of control. The T/C is 95 % of control (dose: 32.0 mg/kg/injection, schedule: Q01DX009 (ip), vehicle: saline with Tween-80) and 104 % of control (dose: 64.0 mg/kg/injection, schedule: Q01DX009 (ip), vehicle: saline with Tween-80).

For the compound `NNC(=O)c1ccccc1`, the T/C reads like this: under setting [6], 105 % of control; under setting [7], 97 % of control; under setting [8], 88 % of control.

`Cc1c(Cl)cccc1NS(=O)(=O)c1cccc([N+](=O)[O-])c1`: the T/C by setting is: under setting [2], 100 % of control; under setting [3], 91 % of control; under setting [4], 98 % of control.

For the compound `CCCCCCCCCCCCCCCCCCOCCCCCCCCCCCCCCCCCC`, the T/C runs as follows: under setting [3], 90 % of control; under setting [5], 88 % of control.

For `COc1ccc(NC(=O)COc2ccccc2Br)cc1`, the T/C is, setting by setting: under setting [9], 103 % of control; (dose: 200.0 mg/kg/injection, schedule: Q01DX009 (ip), vehicle: Klucel (hydroxypropylcellulose) (HPC)) 100 % of control; (dose: 400.0 mg/kg/injection, schedule: Q01DX009 (ip), vehicle: Klucel (hydroxypropylcellulose) (HPC)) 93 % of control.

With `CCOC(=O)c1cc(C(=O)OCC)c(=O)oc1OCC`, the T/C is 102 % of control under setting [1], 100 % of control under setting [2] and 100 % of control under setting [3].

As to `Cc1ccc(S(=O)(=O)[O][Pb]([CH3])([CH3])[CH3])cc1`, the T/C is 97 % of control (dose: 0.18 mg/kg/injection, schedule: Q01DX009 (ip), vehicle: saline); 92 % of control (dose: 0.37 mg/kg/injection, schedule: Q01DX009 (ip), vehicle: saline); 104 % of control (dose: 0.75 mg/kg/injection, schedule: Q01DX009 (ip), vehicle: saline); 97 % of control (dose: 1.5 mg/kg/injection, schedule: Q01DX009 (ip), vehicle: saline).

For `CN1CC[C@]23c4c5ccc(O)c4O[C@H]2C(=O)CC[C@H]3[C@H]1C5`, the T/C is 86 % of control (dose: 12.5 mg/kg/injection, schedule: Q01DX005 (iv), vehicle: saline); 94 % of control under setting [6]; 111 % of control (dose: 25.0 mg/kg/injection, schedule: Q01DX005 (iv), vehicle: saline); 98 % of control under setting [7]; 95 % of control (dose: 50.0 mg/kg/injection, schedule: Q01DX005 (iv), vehicle: saline); 100 % of control under setting [8].

Take `CCOC(=O)/C(C(C)=O)=C(/O)c1ccc(OC(F)(F)C(F)Cl)cc1OC(F)(F)C(F)Cl.CCOC(=O)/C(C(C)=O)=C(/O)c1ccc(OC(F)(F)C(F)Cl)cc1OC(F)(F)C(F)Cl.[Cu]` (stereo unspecified): the T/C by setting is: (dose: 12.5 mg/kg/injection, schedule: Q01DX009 (ip), vehicle: Klucel (hydroxypropylcellulose) (HPC)) 89 % of control; under setting [10], 88 % of control.

On to `CC1(C)C2CCC([CH2][Hg][Cl])C1C2` (stereo unspecified), for which the T/C reads like this: (dose: 2.5 mg/kg/injection, schedule: Q01DX009 (ip), vehicle: saline with Tween-80) 87 % of control; (dose: 5.0 mg/kg/injection, schedule: Q01DX009 (ip), vehicle: saline with Tween-80) 103 % of control; under setting [11], 87 % of control; under setting [12], 96 % of control.

`CC(CN(C)C)C(=O)c1ccccc1` (stereo unspecified): the T/C reads like this: under setting [10], 106 % of control; (dose: 50.0 mg/kg/injection, schedule: Q01DX009 (ip), vehicle: Klucel (hydroxypropylcellulose) (HPC)) 90 % of control; under setting [9], 96 % of control.

Turning to `COc1cccc2c1C(=O)c1c(O)c3c(c(O)c1C2=O)C[C@@](O)(/C(C)=N/NC(=O)c1ccc(Cl)cc1)C[C@@H]3OC1CC(N)C(O)C(C)O1` (stereo partly specified), the T/C is, setting by setting: (dose: 1.0 mg/kg/injection, schedule: Q01DX009 (ip), vehicle: suspension in saline) 155 % of control; (dose: 2.0 mg/kg/injection, schedule: Q01DX009 (ip), vehicle: suspension in saline) 188 % of control; (dose: 2.5 mg/kg/injection, schedule: Q01DX001 (ip), vehicle: saline with Tween-80) 155 % of control; (dose: 2.5 mg/kg/injection, schedule: Q01DX001 (ip), vehicle: water) 121 % of control; (dose: 4.0 mg/kg/injection, schedule: Q01DX009 (ip), vehicle: suspension in saline) 193 % of control; (dose: 5.0 mg/kg/injection, schedule: Q01DX001 (ip), vehicle: saline with Tween-80) 204 % of control. Besides, the T/C was 279 % of control (dose: 5.0 mg/kg/injection, schedule: Q01DX001 (ip), vehicle: water); 322 % of control (dose: 8.0 mg/kg/injection, schedule: Q01DX009 (ip), vehicle: suspension in saline); 196 % of control (dose: 10.0 mg/kg/injection, schedule: Q01DX001 (ip), vehicle: saline with Tween-80); 154 % of control and 300 % of control (dose: 10.0 mg/kg/injection, schedule: Q01DX001 (ip), vehicle: water); 280 % of control (dose: 20.0 mg/kg/injection, schedule: Q01DX001 (ip), vehicle: saline with Tween-80); 235 % of control (dose: 20.0 mg/kg/injection, schedule: Q01DX001 (ip), vehicle: water). Besides, the T/C (dose: 40.0 mg/kg/injection, schedule: Q01DX001 (ip), vehicle: saline with Tween-80) was 205 % of control.

Turning to `NC(=S)N/N=C/c1ccc(O)cn1`, the T/C reads like this: (dose: 9.4 mg/kg/injection, schedule: Q01DX009 (ip), vehicle: saline with Tween-80) 103 % of control; under setting [6], 108 % of control; (dose: 18.8 mg/kg/injection, schedule: Q01DX009 (ip), vehicle: saline with Tween-80) 102 % of control and 119 % of control and 121 % of control; under setting [7], 110 % of control; (dose: 37.5 mg/kg/injection, schedule: Q01DX009 (ip), vehicle: saline with Tween-80) 109 % of control and 111 % of control and 120 % of control; under setting [8], 113 % of control and 122 % of control. In addition, the T/C reads like this: (dose: 75.0 mg/kg/injection, schedule: Q01DX009 (ip), vehicle: saline with Tween-80) 114 % of control and 121 % of control and 124 % of control; under setting [13], 115 % of control and 120 % of control; (dose: 150.0 mg/kg/injection, schedule: Q01DX009 (ip), vehicle: saline with Tween-80) 105 % of control and 115 % of control.

Consider `OCc1ccc[n+](CCc2c[nH]c3ccccc23)c1`, for which the T/C runs as follows: under setting [1], 102 % of control; under setting [2], 99 % of control; under setting [3], 102 % of control.

Regarding `O=C(O)C(O)C(O)C1[O][Sb][O]C1CO` (stereo unspecified), the T/C was 96 % of control (dose: 5.0 mg/kg/injection, schedule: Q01DX009 (ip), vehicle: saline); 100 % of control under setting [13]; 88 % of control (dose: 200.0 mg/kg/injection, schedule: Q01DX009 (ip), vehicle: saline).

Take `Cc1ccc2c(C)c3ccc4ccccc4c3c[n+]2c1`: the T/C runs as follows: under setting [11], 104 % of control; under setting [12], 106 % of control; (dose: 40.0 mg/kg/injection, schedule: Q01DX009 (ip), vehicle: saline with Tween-80) 100 % of control.
